In paper doi:10.1101/520460v1, “Chromokinesins NOD and KID Use Distinct ATPase Mechanisms and Microtubule Interactions to Perform a Similar Function” (biorxiv, 2019):

Biological target: T1, KID (Homo sapiens, UniProt Q14807)
T1 construct: gene KIF22; Glu-C V8 protease added in crystallization
T1 sequence (Q14807 40-400): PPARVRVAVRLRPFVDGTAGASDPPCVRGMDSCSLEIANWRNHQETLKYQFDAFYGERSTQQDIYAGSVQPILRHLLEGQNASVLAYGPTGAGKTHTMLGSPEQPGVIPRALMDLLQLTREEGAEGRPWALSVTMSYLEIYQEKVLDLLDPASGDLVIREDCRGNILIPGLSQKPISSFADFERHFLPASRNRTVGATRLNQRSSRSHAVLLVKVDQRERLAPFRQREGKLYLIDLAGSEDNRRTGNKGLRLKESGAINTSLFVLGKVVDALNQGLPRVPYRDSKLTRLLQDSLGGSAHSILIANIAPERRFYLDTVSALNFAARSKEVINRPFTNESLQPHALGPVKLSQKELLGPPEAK
Test: X-ray crystal structure of the complex
Type: binding
Conditions: crystals from 3.2 M NaCl, 0.1 M Tris pH 8.5, 291 K, 5 molar fold MgADP

Nc1ncnc2c1ncn2[C@@H]1O[C@H](COP(=O)(O)OP(=O)(O)O)[C@@H](O)[C@H]1O [ADP]
X-ray crystal structure of the complex: We solved the X-ray crystal structure of the KID catalytic domain in the ADP state
